{
  "source": "patent US20230270817A1",
  "about": "“VIMENTIN INHIBITORS” (Filamon Pty Ltd, priority 2020, published 2023)",
  "key": {"[1]": {"molecular_target": "T1, hGIIA binding to full length vimentin (Homo sapiens, UniProt P08670)", "T1 construct": "His6 tag (HHHHHH) from pET15b (N); thrombin cleavage site (LVPRGS) (N); made in house; host or cells: vimentin: Rosetta 2 E. coli (pET15b)", "T1 sequence (P08670 whole entry)": "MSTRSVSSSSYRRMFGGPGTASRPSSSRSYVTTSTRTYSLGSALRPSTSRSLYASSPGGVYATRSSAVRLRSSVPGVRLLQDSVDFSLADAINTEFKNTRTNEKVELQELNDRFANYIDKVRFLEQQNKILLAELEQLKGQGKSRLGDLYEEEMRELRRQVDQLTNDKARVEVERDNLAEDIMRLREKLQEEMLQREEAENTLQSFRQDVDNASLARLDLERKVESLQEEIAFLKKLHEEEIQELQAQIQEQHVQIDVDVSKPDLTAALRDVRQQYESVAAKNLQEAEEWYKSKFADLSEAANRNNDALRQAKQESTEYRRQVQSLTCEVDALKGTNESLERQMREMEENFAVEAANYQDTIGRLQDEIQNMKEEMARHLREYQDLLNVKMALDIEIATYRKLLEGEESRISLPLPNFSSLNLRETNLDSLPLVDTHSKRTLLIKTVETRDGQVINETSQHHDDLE", "test": "Colorimetric enzyme immunoassay (EIA) of inhibitor effect on the hGIIA-vimentin interaction, full length vimentin", "conditions": "immobilised full length vimentin, hGIIA 250 ng/mL, inhibitors 5-100 μM, FIG. 2B top panel", "description": "(§1) Purified vimentin protein solutions (full length, coil 1 or coil 2 fragments) were diluted to 10-20 μg/mL concentration in PBS and seeded to a 96-well microplate with a 100 μL/well volume. After an overnight incubation at 4° C., the plate was emptied. Each well was then blocked with 200 μL of 1% BSA in PBS. The blocked plate was incubated for at least an overnight period at 4° C. and used within 1 week."}, "[2]": {"test_system": "LNCaP prostate cancer cells", "test": "Murine prostate cancer xenograft model", "assay_type": "in vivo, male Balb/c nu/nu mice", "conditions": "c2 0.1 mg/kg in saline thrice weekly, eight-week period, compared to vehicle", "description": "Animals (male Balb/c nu/nu mice, aged six weeks, n=15 per group) were injected subcutaneously in the right rear flank with 1×10^6 LNCaP prostate cancer cells. Tumour size was monitored with calipers measuring tumour width and length and tumour volume calculated as described (Sved et al., Cancer Res, 2004. 64(19): p. 6934-40). When tumours were palpable and measured >5×5 mm, animals were randomised and entered into the study. […] Tumour volume data are mean±SE."}, "[3]": {"molecular_target": "T2, vimentin coil 1 fragment (residues 96 to 253), recombinant, His-tagged (human, UniProt P08670 96-253)", "T2 construct": "Removal of the tag is not reported; also called coil 1 segment", "T2 sequence (P08670 other isoform, or with tags, fused parts or gaps)": "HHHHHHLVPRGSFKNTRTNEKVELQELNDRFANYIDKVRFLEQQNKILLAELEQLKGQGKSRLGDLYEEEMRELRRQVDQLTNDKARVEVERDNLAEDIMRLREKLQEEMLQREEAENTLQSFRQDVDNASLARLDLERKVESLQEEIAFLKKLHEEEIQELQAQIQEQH", "test": "EIA, plate-bound vimentin coil 1, detection with 4A1-AP", "description": "as §1"}},
  "note": "Entries after “also recorded” stand apart in the source; their conditions may differ. Non-standard residues stand in square brackets, D forms with d. 2Nal = N[C@@H](Cc1ccc2ccccc2c1)C(=O)O",
  "data": [
    {"molecule": "CCc1c(CC(N)=O)c2cc(OCCCP(=O)(O)O)ccc2n1Cc1ccccc1", "note": "[LY311727, [3-[[3-(2-amino-2-oxoethyl)-2-ethyl-1-(phenylmethyl)-1H-indol-5-yl]oxy]propyl]-phosphonic acid]", "values": [
      {"measurement": "inhibition of hGIIA binding to full length vimentin", "setting": "[1]", "value": "c2 exhibited greater inhibition of hGIIA binding to full length vimentin than LY311727"}
    ]},
    {"molecule": "cyclo-((2-Nal)-Leu-Ser-(2-Nal)-Arg) (cyclo([2Nal]LS[2Nal]R); SMILES CC(C)C[C@@H]1NC(=O)[C@H](Cc2ccc3ccccc3c2)NC(=O)[C@H](CCCNC(=N)N)NC(=O)[C@H](Cc2ccc3ccccc3c2)NC(=O)[C@H](CO)NC1=O)", "values": [
      {"measurement": "growth in tumour volume", "setting": "[2]", "value": "significantly reduced the growth in tumour volume; also recorded: potently slows the growth of prostate cancer"}
    ]},
    {"molecule": "human group IIA secreted phospholipase A2 (hGIIA), recombinant, purified from conditioned media of CHO cell line 2B1 (enzyme, this was not applied; also called human sPLA2-IIA; sPLA2) NLVNFHRMIKLTTGKEAALSYGFYGCHCGVGGRGSPKDATDRCCVTHDCCYKRLEKRGCGTKFLSYKFSNSGSRITCAKQDSCRSQLCECDKAAATCFARNKTTYNKKYQYYSNKHCRGSTPRC", "values": [
      {"measurement": "binding result", "setting": "[3]", "value": "no binding (tested: 5-1000 ng/mL hGIIA)"}
    ]}
  ]
}
